Square brackets hold non-standard residues; d marks the D form. Peptide text beside a SMILES is read from it. dPhe(4-CF3) = N[C@H](Cc1ccc(C(F)(F)F)cc1)C(=O)O; Nle = CCCC[C@H](N)C(=O)O
What was measured:
hMC1R = hMC1R (Homo sapiens, UniProt Q01726); assay: cAMP accumulation, HEK293 cells expressing hMC1R; assay type: cell-based; conditions: hMC1R agonist EC50 versus other melanocortin receptors
MC3R Asp158Ala mutation = conditions: MC3R mutant versus wild type; cited from earlier work
[1] = tested on: hMC1R Asp117Ala and Asp121Ala mutants; conditions: hMC1R mutants versus wild type; cited from earlier work
[2] = tested on: hMC1R Asp117Ala and Asp121Ala mutants; conditions: hMC1R mutants versus wild type; cited from earlier work; remark: listed apart in the source

Chain of hMC1R (Q01726 whole entry): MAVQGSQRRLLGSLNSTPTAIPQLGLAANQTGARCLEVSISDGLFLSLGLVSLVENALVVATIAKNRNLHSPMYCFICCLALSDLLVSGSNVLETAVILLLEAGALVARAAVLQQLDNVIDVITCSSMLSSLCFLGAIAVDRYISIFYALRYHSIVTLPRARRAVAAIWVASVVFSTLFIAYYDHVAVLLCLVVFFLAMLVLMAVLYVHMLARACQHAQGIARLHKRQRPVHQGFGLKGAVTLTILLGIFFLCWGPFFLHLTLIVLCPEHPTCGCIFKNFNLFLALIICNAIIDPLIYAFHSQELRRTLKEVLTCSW

Compound | hMC1R selectivity to other MCR subtypes (hMC1R) | increase for the EC50 value, Asp158Ala mutation (MC3R Asp158Ala mutation) | increase on the IC50 value for the Asp117Ala and Asp121Ala mutants [1] | increase on the EC50 value for the Asp117Ala and Asp121Ala mutants [2]
CCCC[C@H](NC(=O)[C@@H](Cc1ccc(C(F)(F)F)cc1)NC(=O)[C@H](Cc1cnc[nH]1)NC(C)=O)C(=O)N[C@@H](Cc1c[nH]c2ccccc12)C(N)=O [Peptide 5, Ac-His-DPhe(4-CF3)-Nle-Trp-NH2] (Ac-H[dPhe(4-CF3)][Nle]W-NH2) | at least 25 fold | – | – | –
NDP-α-MSH | – | more than 350 fold | around 10 fold | around 10 fold

From paper PMC6003700 (European journal of medicinal chemistry, 2018)
